Measurements: patent publication US20240398737A1, “FUNCTIONALIZED LONG-CHAIN HYDROCARBON MONO- AND DI-CARBOXYLIC ACIDS AND DERIVATIVES THEREOF, AND THEIR USE FOR THE PREVENTION OR TREATMENT OF DISEASE” (Espervita Therapeutics, Inc., priority 2021, published 2024)
Several values for one entry are separate records, joined by “and”; a condition that tells them apart may be missing. Equal entries are not always repeated. Where two headings read alike, the source gives them in different places.

What was measured:
[1] = target: GSK3b (Homo sapiens (Human), UniProt P49841); assay: Wild type kinase screen: GSK3b; assay type: biochemical; conditions: compound at 10 μM, 10 μM ATP, Data 1 and Data 2 duplicates
[2] = target: RIPK4 (Homo sapiens (Human), UniProt P57078); assay: Wild type kinase screen: RIPK4; assay type: biochemical; conditions: compound at 10 μM, 10 μM ATP, Data 1 and Data 2 duplicates
[3] = Toxicokinetics in female rats (4-day oral gavage study, Day 1); assay type: in vivo; conditions: female rat plasma; for Dose proportionality of the increases in mean Cmax and AUC0-24: 100 to 300 mg/kg/day; for Cmax / Tmax / AUC(0-t): Wistar Han (RccHan:WIST); for Cmax / Tmax / AUC(0-t) / AUC0-24 (h*ng/mL): Day 1; for AUC(0-t): read-out: AUC0-24
Protocol: Dosing Solutions. The dosing solutions of Compound I-1 or Compound I-32 were prepared as follows: a 60-mg/mL stock solution was prepared for Compound I-1 or Compound I-32 by dissolving Compound I-1 or Compound I-32 in DI water. Two molar equivalents of NaOH was added for every 1 mole of Compound I-1 or Compound I-32 (1.1 μL of 5N NaOH was added for every mg of Compound I-32 or Compound I-1). The pH of the stock solution for Compound I-1 or Compound I-32 was adjusted to achieve a final pH of 8.2 to 8.6. The resultant stock formulations were further diluted with vehicle to achieve the 30 mg/mL concentration. The 30-mg/mL formulations were diluted with control article to achieve the 10-mg/mL concentration. All dilution calculations were based on the nominal concentration of the stock solution. Formulations of Compound I-1 or Compound I-32 were prepared on the day of dosing were stored at room temperature (15 to 30° C.) and used within 8 hours of preparation completion. The control was 1.5% (w/v) carboxymethyl cellulose+0.2% (v/v) Tween 20 in DI water for as Group 1 formulations. The vehicle used for Compound I-1 and Compound I-32 formulations was 3% (w/v) carboxymethyl cellulose+0.4% (v/v) Tween 20 in DI water.
Bioanalytical and Toxicokinetic Analyses. Blood samples (approximately 0.3 mL) were collected from nonfasted toxicokinetic animals via a jugular vein on Day 1 of the dosing phase, as indicated in the following table. Samples were collected predose and approximately 1, 2, 4, and 24 hours postdose.
Blood was collected into tubes containing potassium (K2) EDTA as the anticoagulant. Samples were maintained on chilled cryoracks and were centrifuged within 1 hour of collection. Plasma was harvested into two approximately equal aliquots and stored on dry ice until placed in a freezer, set to maintain −60 to −80° C., until analyzed. Plasma samples were analyzed for Compound I-1 and Compound I-32 content using a generic Tier 1 qualified liquid chromatography-tandem mass spectrometry (LC-MS/MS) method.
In-Life Phase. Animals were dosed once daily for up to 4 days via oral gavage at a volume of 10 mL/kg. Animals in Group 2 and 3 were administered Compound I-1. Animals in Group 4 and 5 were administered Compound I-32. The control article for Group 1 was 1.5% (w/v) carboxymethyl cellulose+0.2% (v/v) Tween 20 in deionized (DI) water. The vehicle used to prepare Compound I-1 and Compound I-32 formulations was 3% (w/v) carboxymethyl cellulose+0.4% (v/v) Tween 20 in DI water.

[4] = system: hepatic de novo lipogenesis; assay: Hepatic de novo lipogenesis (14C-glucose) in a murine model of NASH; assay type: in vivo, mouse; conditions: for Hepatic de novo lipogenesis, Mean (DPM/gram liver tissue/hour): high fat/high fructose fed mice
Protocol: Experimental Protocol. FIG. 22 summarizes the study protocol. Mice were dosed daily for 7 days with a single dose of either Compound I-32 or Compound I-1 at a dose of 10 mg/kg, 30 mg/kg or 60 mg/kg. On the 8th day of the experiment mice receive final dose of Compound I-32 or Compound I-1, followed one hour later by an I.P. bolus of 14—C Glucose.
C57BL6J (8 weeks of age) were obtained for the Jackson Laboratory and fed a normal chow diet upon arrival. At ˜10 weeks of age, mice were given a diet containing high fat and high fructose (Rodent Diet with 40 kcal % Fat (Mostly Palm Oil), 20 kcal % fructose, and 0.02% cholesterol, obtained from Research Diets, Product Code: D19101102) and housed at thermoneutral conditions (26-29° C.). After 7-8 months the mice were divided into 7 groups and received a single daily dose via gavage of either vehicle (1.5% CMC and 0.2% Tween-20) or vehicle containing Compound I-32 or Compound I-1 at a concentration of 10 mg/kg, 30 mg/kg, or 60 mg/kg for 7 days. On the morning of day 8, animals received a final dose and after 1 hour ^14C-glucose (PerkinElmer) was administered at a concentration of 12 μCi per mouse in a volume of 0.1 ml in 0.9% saline I.P. One hour after ^14C-glucose was given, animals were anesthetized by I.P. injection of Ketamine/Xylazine (150 mg/12.4 mg/kg, respectively). Blood was drawn through cardiac puncture; the liver was removed, and a sample was from the left lobe and frozen in liquid nitrogen. Liver tissue was chipped on dry-ice and the weight of the chip weight recorded (30-50 mg of tissue). Liver tissue was homogenized in 1 ml of 2:1 chloroform: methanol using a bead homogenizer at 5000 rpm for 2×12 seconds. Samples were incubated with gentle shaking at 4° C. for 2 hours, vortexed for 2×12 seconds, and then centrifuge at 7000 rpm for 10 minutes at 4° C. The supernatant was transferred to a 1.5 ml Eppendorf and 200 μl of 0.9% saline was added. Samples were vortexed for 2×12 seconds and centrifuged at 3000 rpm for 10 minutes at 4° C. 200 μl of the lower organic phase was removed and added to 5 ml of scintillation fluid. The amount radioactivity in the sample was measured by scintillation counting. The number of disintegrations per minute (DPM) were determined over a 5-minute period and normalized to the amount of liver tissue. 5-10 μl of plasma obtained at termination was also counted and lipid/gram tissue counts were normalized to plasma counts. Statistical comparisons were carried out using a one-way ANOVA followed by Dunnett's post hoc test using GraphPad Prism 8 software. A p-value of less than or equal to 0.05 was used as the criterion of significance.

[5] = 10 mg/kg daily oral gavage for 7 days
[6] = 30 mg/kg daily oral gavage for 7 days
[7] = 60 mg/kg daily oral gavage for 7 days

Chain of GSK3b (P49841 whole entry, species assumed): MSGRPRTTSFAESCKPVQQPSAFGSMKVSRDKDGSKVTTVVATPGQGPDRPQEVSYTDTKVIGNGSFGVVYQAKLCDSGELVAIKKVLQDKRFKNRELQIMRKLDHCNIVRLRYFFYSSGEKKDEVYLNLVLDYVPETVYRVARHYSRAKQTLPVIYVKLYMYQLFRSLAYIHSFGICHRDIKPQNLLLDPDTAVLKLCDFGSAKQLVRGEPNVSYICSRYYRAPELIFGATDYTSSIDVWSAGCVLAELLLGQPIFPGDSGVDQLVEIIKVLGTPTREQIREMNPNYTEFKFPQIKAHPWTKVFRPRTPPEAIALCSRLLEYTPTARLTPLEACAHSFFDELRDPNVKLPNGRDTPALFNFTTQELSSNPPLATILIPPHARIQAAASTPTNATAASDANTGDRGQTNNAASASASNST
Chain of RIPK4 (P57078 whole entry, species assumed): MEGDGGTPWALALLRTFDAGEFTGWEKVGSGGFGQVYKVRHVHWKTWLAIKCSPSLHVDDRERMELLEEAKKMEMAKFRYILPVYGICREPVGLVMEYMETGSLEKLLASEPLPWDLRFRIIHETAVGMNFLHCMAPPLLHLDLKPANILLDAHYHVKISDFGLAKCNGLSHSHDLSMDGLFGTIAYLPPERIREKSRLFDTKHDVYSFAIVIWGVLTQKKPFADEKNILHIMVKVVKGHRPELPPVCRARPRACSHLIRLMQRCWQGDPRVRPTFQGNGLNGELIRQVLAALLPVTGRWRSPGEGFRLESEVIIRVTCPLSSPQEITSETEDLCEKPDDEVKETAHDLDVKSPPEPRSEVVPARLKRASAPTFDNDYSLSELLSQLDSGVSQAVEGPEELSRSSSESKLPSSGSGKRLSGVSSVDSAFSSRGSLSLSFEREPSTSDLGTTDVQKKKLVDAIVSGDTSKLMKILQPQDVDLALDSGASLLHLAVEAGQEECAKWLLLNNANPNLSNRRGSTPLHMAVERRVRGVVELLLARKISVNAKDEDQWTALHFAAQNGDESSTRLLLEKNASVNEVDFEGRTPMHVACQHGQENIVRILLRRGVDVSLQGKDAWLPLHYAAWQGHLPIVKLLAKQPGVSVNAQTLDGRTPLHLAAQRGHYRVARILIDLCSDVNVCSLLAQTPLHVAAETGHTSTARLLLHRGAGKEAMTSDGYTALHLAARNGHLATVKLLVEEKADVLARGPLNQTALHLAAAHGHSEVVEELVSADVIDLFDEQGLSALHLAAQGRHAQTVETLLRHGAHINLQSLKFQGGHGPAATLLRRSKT

SMILES: CC(C)(CCCCc1cccc(CCCCC(C)(C)C(=O)O)c1)C(=O)O [Compound I-32, 6-[3-(5-carboxy-5-methylhexyl)-phenyl]-2,2-dimethylhexanoic acid]
- % Enzyme Activity (relative to DMSO controls) [1]: 72.67%
- % Enzyme Activity (relative to DMSO controls) [2]: 42.74%
- Dose proportionality of the increases in mean Cmax and AUC0-24 [3]: approximately dose proportional
- Cmax ([3]; 100 mg/kg/day oral gavage): 142 µg/mL
- Tmax ([3]; 100 mg/kg/day oral gavage): 2 h
- AUC(0-t) ([3]; 100 mg/kg/day oral gavage): 2030 µg·h/mL
- Cmax ([3]; 300 mg/kg/day oral gavage): 406 µg/mL
- Tmax ([3]; 300 mg/kg/day oral gavage): 4 h
- AUC(0-t) ([3]; 300 mg/kg/day oral gavage): 7880 µg·h/mL
- AUC0-24 (h*ng/mL) ([3]; 300 mg/kg/day oral gavage): 7,880,000 h*ng/mL
- Hepatic de novo lipogenesis, % change from vehicle control (inhibition) [4, 5]: 48.79%
- Hepatic de novo lipogenesis, Mean (DPM/gram liver tissue/hour) [4, 5]: 50.61 DPM/gram liver tissue/hour
- Hepatic de novo lipogenesis, % change from vehicle control (inhibition) [4, 6]: 37.42%
- Hepatic de novo lipogenesis, Mean (DPM/gram liver tissue/hour) [4, 6]: 61.85 DPM/gram liver tissue/hour
- Hepatic de novo lipogenesis, % change from vehicle control (inhibition) [4, 7]: 53% and 52.90%
- Hepatic de novo lipogenesis, Mean (DPM/gram liver tissue/hour) [4, 7]: 46.55 DPM/gram liver tissue/hour

SMILES: CC(C)(CCCCc1ccc(CCCCC(C)(C)C(=O)O)cc1)C(=O)O [Compound I-1, 6-[4-(5-carboxy-5-methylhexyl)-phenyl]-2,2-dimethylhexanoic acid]
- % Enzyme Activity (relative to DMSO controls) [1]: 82.73%
- % Enzyme Activity (relative to DMSO controls) [2]: 42.78%
- Dose proportionality of the increases in mean Cmax and AUC0-24 [3]: less than dose proportional
- Cmax ([3]; 100 mg/kg/day oral gavage): 415 µg/mL
- Tmax ([3]; 100 mg/kg/day oral gavage): 2 h
- AUC(0-t) ([3]; 100 mg/kg/day oral gavage): 5460 µg·h/mL
- Cmax ([3]; 300 mg/kg/day oral gavage): 787 µg/mL
- Tmax ([3]; 300 mg/kg/day oral gavage): 1 h
- AUC(0-t) ([3]; 300 mg/kg/day oral gavage): 7520 µg·h/mL
- AUC0-24 (h*ng/mL) ([3]; 100 mg/kg/day oral gavage): 5,460,000 h*ng/mL
- Hepatic de novo lipogenesis, Mean (DPM/gram liver tissue/hour) [4, 5]: 81.25 DPM/gram liver tissue/hour
- Hepatic de novo lipogenesis, % change from vehicle control (inhibition) [4, 6]: 56% and 55.65%
- Hepatic de novo lipogenesis, Mean (DPM/gram liver tissue/hour) [4, 6]: 43.83 DPM/gram liver tissue/hour
- Hepatic de novo lipogenesis, % change from vehicle control (inhibition) [4, 7]: 69% and 68.96%
- Hepatic de novo lipogenesis, Mean (DPM/gram liver tissue/hour) [4, 7]: 30.68 DPM/gram liver tissue/hour
